Data: patent US20020102688A1, “Methods and products for the synthesis of oligosaccharide structures on glycoproteins, glycolipids, or as free molecules, and for the isolation of cloned genetic sequences that determine these structures” (The Regents of the University of Michigan, priority 1990, published 2002)

Assays:
Fuc-TIV = biological target: T1, Fuc-TIV (Homo sapiens, UniProt P22083); assay: Fucosyltransferase assay, extracts of COS-1 cells transfected with pCDNA1-Fuc-TIV; format: biochemical; parameters: expressed in transfected cells; host or cells: COS-1 cells, transient transfection, 1% Triton X-100 extract; settings: for fucose transfer to acceptor: pCDNA1-Fuc-TIV COS-1 extracts with relatively large activity toward N-acetyllactosamine; for Relative Activity (%) with Fuc-TIV: relative product formation rate, N-acetyllactosamine = 100, acceptor 20 mM (2-fucosyllactose 5 mM), GDP-[14C]fucose 3 μM, transfected COS-1 cell extract; for fucosyltransferase activity with acceptor substrate: standard assay, extracts of pCDNA1-Fuc-TIV transfected COS-1 cells, acceptor 20 mM
T1 sequence (P22083 1-405 isoform P22083-2): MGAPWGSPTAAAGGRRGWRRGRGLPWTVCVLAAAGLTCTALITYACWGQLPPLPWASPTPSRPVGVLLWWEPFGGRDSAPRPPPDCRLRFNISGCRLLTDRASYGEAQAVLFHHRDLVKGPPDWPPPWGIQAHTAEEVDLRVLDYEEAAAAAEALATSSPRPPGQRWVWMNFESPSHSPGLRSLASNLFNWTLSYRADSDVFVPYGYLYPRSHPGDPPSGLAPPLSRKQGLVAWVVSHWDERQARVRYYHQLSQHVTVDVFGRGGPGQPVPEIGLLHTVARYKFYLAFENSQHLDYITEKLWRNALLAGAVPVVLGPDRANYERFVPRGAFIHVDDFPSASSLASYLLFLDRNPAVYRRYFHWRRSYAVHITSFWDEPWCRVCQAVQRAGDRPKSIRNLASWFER
Description: Cell extracts containing 1% Triton X-100 were prepared from transfected COS-1 cells. Fucosyltransferase assays were performed in a total volume of 20 μl, and contained 50 mM sodium cacodylate, pH 6.2, 5 mM ATP, 10 mM fucose, 20 mM MnCl2, 3 μM GDP-^14C-fucose, and 5 μl (30 μg protein) of cell extract. Acceptor substrates were added to a final concentration of 20 mM. Reactions were incubated at 37° C. for 1 hour and terminated by addition of 20 μl ethanol, followed by addition of 600 μl of distilled water. An aliquot of each reaction (50 μl) was subjected to scintillation counting to determine total radioactivity in the reaction. Another aliquot (200 μl) was applied to a column containing 400 μl of Dowex IX2-400, formate form. The flow through fraction, and […] of a subsequent water elution, were collected and pooled, and an aliquot was subjected to scintillation counting to quantitate incorporation of radioactive fucose into neutral product. Descending paper chromatography was used to confirm the structure of the product formed with the acceptor N-acetyllactosamine. The neutral product in the Dowex column eluate was concentrated by lyophilization, resuspended in a small volume of water, and fractionated through Whatman No. 40 in phenol/isopropanol/formic acid/water (85:5:10:100, lower layer). After chromatography (40 hours), the air-dried chromatogram was cut into 1 cm strips and the strips eluted into 2 ml of water. Radioactivity in each eluate was determined by scintillation counting after mixing with 10 ml of scintillation cocktail.
(§1) Table 2 presents the relative product formation rates obtained with low molecular weight acceptor substrates using cell extracts containing recombinant human α(1,3)fucosyltransferases expressed in transfected COS-1 cells, as described in the preceding sections. Fucosyltransferase assays were performed as described in detail in Lowe et al, J. Biol. Chem., (1991), 266:17467-17477; Weston et al, J. Biol. Chem. (1992), 267:4152-4160; and Kukowska-Latallo et al, Genes. Devel., (1990), 4:1288-1303. For each enzyme, the same extract was used, with saturating amounts of each acceptor oligosaccharide (20 mM, except for 2′-fucosylactose which was used at 5 mM), and GDP-^14C]fucose was present at 3 μM. Reaction times and enzyme amounts were adjusted to ensure a linear rate of product formation (less than 15% of the GDP-fucose substrate consumed). Products were separated by column chromatography and quantitated by liquid scintillation counting, and their structures were confirmed by high performance liquid chromatography, as described in Lowe et al, J. Biol. Chem., (1991), 266:17467-17477; Weston et al, J. Biol. Chem. (1992), 267:4152-4160; and Kukowska-Latallo et al, Genes. Devel., (1990), 4:1288-1303.

Fuc-TV = biological target: T2, Fuc-TV (Homo sapiens, UniProt Q11128); assay: Fucosyltransferase assay, extracts of COS-1 cells transfected with pCDNA1-Fuc-TV; format: biochemical; settings: for utilization as acceptor substrate by Fuc-TV (in words): extracts of COS-1 cells transfected with pCDNA1-Fuc-TV; for Relative Activity (%) with Fuc-TV: relative product formation rate, N-acetyllactosamine = 100, acceptor 20 mM (2-fucosyllactose 5 mM), GDP-[14C]fucose 3 μM, transfected COS-1 cell extract
T2 construct: a 1.94 kb Earl-Xbal fragment containing the entire open reading frame was cloned into a mammalian expression vector; expressed in transfected cells; host or cells: COS-1 cells, transient transfection, 1% Triton X-100 extract
T2 sequence (Q11128 1-374): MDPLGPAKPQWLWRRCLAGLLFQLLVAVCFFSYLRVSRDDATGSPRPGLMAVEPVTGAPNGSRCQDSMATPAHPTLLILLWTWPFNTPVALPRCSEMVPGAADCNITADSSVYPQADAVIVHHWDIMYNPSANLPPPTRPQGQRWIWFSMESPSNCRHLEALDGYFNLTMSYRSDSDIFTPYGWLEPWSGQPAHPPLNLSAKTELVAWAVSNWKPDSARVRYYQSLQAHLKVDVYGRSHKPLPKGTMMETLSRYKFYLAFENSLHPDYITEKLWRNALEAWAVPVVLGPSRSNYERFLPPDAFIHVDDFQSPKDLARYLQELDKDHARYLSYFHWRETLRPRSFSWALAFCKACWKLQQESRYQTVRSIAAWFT
Description: Cell extracts containing 1% Triton X-100 were prepared from transfected COS-1 cells. Fucosyltransferase assays were performed in a total volume of 20 μl, and contained 25 mM sodium cacodylate, pH6.2, 5 mM ATP, 10 mM L-fucose, 10 mM MnCl2, 3 μM GDP-^14C-fucose, and 5 μl of cell extract. Acceptor substrates were added to a final concentration of 20 mM. Reactions were incubated at 37° C. for 1 hour and terminated by addition of 20 μl ethanol, followed by addition of 600 μl of distilled water. An aliquot of each reaction (50 μl) was subjected to scintillation counting to determine total radioactivity in the reaction. Another aliquot (200 μl) was applied to a column containing 400 μl of Dowex 1X2-400, formate form. The flow through fraction, and […] of a subsequent water elution, were collected and pooled, and an aliquot was subjected to scintillation counting to quantitate incorporation of radioactive fucose into neutral product.
as §1

Compound	fucose transfer to acceptor (Fuc-TIV)	Relative Activity (%) with Fuc-TIV (Fuc-TIV) [%]	fucosyltransferase activity with acceptor substrate (Fuc-TIV)	utilization as acceptor substrate by Fuc-TV (in words) (Fuc-TV)	Relative Activity (%) with Fuc-TV (Fuc-TV) [%]
CC(=O)N[C@H]1C(O)O[C@H](CO)[C@@H](O[C@@H]2O[C@H](CO)[C@H](O)[C@H](O)[C@H]2O)[C@@H]1O (stereo partly drawn) [N-acetyllactosamine]	474 pmol/mg/h	100	296 pmol/mg/h	utilized	100
CC(=O)N[C@@H]1[C@@H](O[C@@H]2O[C@H](CO)[C@H](O)[C@H](O)[C@H]2O)[C@H](O)[C@@H](CO)O[C@@H]1O [lacto-N-biose I]		<1	trace amount	low efficiency	10
OC[C@H]1O[C@@H](O[C@H]2[C@H](O)[C@@H](O)C(O)O[C@@H]2CO)[C@H](O)[C@@H](O)[C@H]1O (stereo partly drawn) [lactose]		3	10 pmol/mg/h	substantially lower efficiencies	11
CC(=O)NC1C(O)OC(CO)C(OC2OC(CO)C(O)C(OC3(C(=O)O)CC(O)C(NC(C)=O)C(C(O)C(O)CO)O3)C2O)C1O (stereo not drawn) [α(2,3)sialyllactosamine, NeuAcα(2→3)Galβ(1→4)GlcNAc]	less than 1 pmol/mg-h	<1		efficiently utilized	115
Fucα(1,2)Galβ(1,4)Glc [2-fucosyllactose]		6	17 pmol/mg/h	substantially lower efficiencies	42
